Values of other authors, collected in patent US20220168241A1, “SUSTAINED RELEASE C[…] METHOD OF PREPARATION THEREOF” (PHARMATHEN S.A., priority 2019, published 2022).

Biological target: recombinant μ-opioid receptor (Homo sapiens, UniProt P35372)
Sequence (P35372 whole entry, species assumed): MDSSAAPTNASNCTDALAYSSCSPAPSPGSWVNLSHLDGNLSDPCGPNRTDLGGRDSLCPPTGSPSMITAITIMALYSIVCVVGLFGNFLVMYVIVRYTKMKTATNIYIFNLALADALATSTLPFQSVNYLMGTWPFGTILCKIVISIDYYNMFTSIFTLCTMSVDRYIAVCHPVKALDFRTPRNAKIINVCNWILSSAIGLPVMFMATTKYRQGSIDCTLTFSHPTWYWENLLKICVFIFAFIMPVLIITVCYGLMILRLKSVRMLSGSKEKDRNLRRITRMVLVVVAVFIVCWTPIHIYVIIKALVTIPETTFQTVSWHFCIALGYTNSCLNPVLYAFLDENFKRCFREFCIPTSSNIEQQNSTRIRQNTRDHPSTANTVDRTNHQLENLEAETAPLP

CC[C@@H](c1cccc(O)c1)[C@@H](C)CN(C)C [Tapentadol]
reduced affinity to recombinant μ-opioid receptor compared to morphine: 18 times
